Measured values taken from patent US20150191469A1, “COMPOUNDS AND METHODS FOR TREATING HIV” (priority 2012, published 2015).

Tested on: HIV
Assay: MT4 assay: antiviral HIV activity (cell protection, cell titer glo readout at 96 hours)
Assay type: cell-based
Conditions: Human immunodeficiency virus 1, MT4, 96 h, MT4 cells, cell titer glo readout at 96 hours, 10 point dose response; read-out: HIV MT4 Assay IC50
Protocol: Antiviral HIV activity and cytotoxicity values for compounds of the invention from Table 1 were measured in parallel in the HTLV-1 transformed cell line MT-4 based on the method previously described (Hazen et al., 2007, In vitro antiviral activity of the novel, tyrosyl-based human immunodeficiency virus (HIV) type 1 protease inhibitor brecanavir (GW640385) in combination with other antiretrovirals and against a panel of protease inhibitor-resistant HIV (Hazen et al., “In vitro antiviral activity of the novel, tyrosyl-based human immunodeficiency virus (HIV) type 1 protease inhibitor brecanavir (GW640385) in combination with other antiretrovirals and against a panel of protease inhibitor-resistant HIV”, Antimicrob. Agents Chemother. 2007, 51: 3147-3154; and Pauwels et al., “Sensitive and rapid assay on MT-4 cells for the detection of antiviral compounds against the AIDS virus”, J. of Virological Methods 1987, 16: 171-185).
Luciferase activity was measured 96 hours later by adding a cell titer glo (Promega, Madison, Wis.). Percent inhibition of cell protection data was plotted relative to no compound control. Under the same condition, cytotoxicity of the compounds was determined using cell titer Glo™ (Promega, Madison, Wis.). IC50s were determined from a 10 point dose response curve using 3-4-fold serial dilution for each compound, which spans a concentration range >1000 fold.
These values are plotted against the molar compound concentrations using the standard four parameter logistic equation:
y=((Vmax*x̂n)/(K̂n+x̂n))+Y2
Y2=minimum y n=slope factor
Vmax=maximum y x=compound concentration [M]

IC50 | SMILES
0.0054 µM | Cc1nc2c(cc(-c3ccnc(-c4cccc5c4cnn5C)c3)n2C)c(-c2cc(F)c3c(c2C)CCCO3)c1[C@H](OC(C)(C)C)C(=O)O (atropisomer, axis not shown) [Example 58]
0.0029 µM | Cc1nc2c(cc(-c3ccnc(-c4cnc5[nH]ccc5c4)c3)n2C)c(-c2cc(F)c3c(c2C)CCCO3)c1[C@H](OC(C)(C)C)C(=O)O (atropisomer, axis not shown) [Example 62]
0.045 µM | Cc1nc2c(cc(-c3ccnc(-c4ccn5cc(C(F)(F)F)nc5c4)c3)n2C)c(-c2cc(F)c3c(c2C)CCCO3)c1[C@H](OC(C)(C)C)C(=O)O (atropisomer, axis not shown) [Example 67]
0.0031 µM | Cc1nc2c(cc(-c3ccnc(-c4cnc(N5CCN(C)CC5)nc4)c3)n2C)c(-c2cc(F)c3c(c2C)CCCO3)c1[C@H](OC(C)(C)C)C(=O)O (atropisomer, axis not shown) [Example 70]
0.0046 µM | Cc1nc2c(cc(-c3ccnc(-c4cnc5c(c4)CCCN5)c3)n2C)c(-c2cc(F)c3c(c2C)CCCO3)c1[C@H](OC(C)(C)C)C(=O)O (atropisomer, axis not shown) [Example 72]
0.0213 µM | Cc1nc2c(cc(-c3ccnc(N4CCC(C)CC4)c3)n2C)c(-c2cc(F)c3c(c2C)CCCO3)c1[C@H](OC(C)(C)C)C(=O)O (atropisomer, axis not shown) [Example 80]
2.28 µM | Cc1nc2c(cc(-c3ccnc(NC4COC4)c3)n2C)c(-c2cc(F)c3c(c2C)CCCO3)c1[C@H](OC(C)(C)C)C(=O)O (atropisomer, axis not shown) [Example 81]
0.0147 µM | Cc1nc2c(cc(-c3ccnc(N4CCN(c5nccs5)CC4)c3)n2C)c(-c2cc(F)c3c(c2C)CCCO3)c1[C@H](OC(C)(C)C)C(=O)O (atropisomer, axis not shown) [Example 84]
0.0127 µM | Cc1nc2c(cc(-c3ccnc(N4CCCN(C5COC5)CC4)c3)n2C)c(-c2cc(F)c3c(c2C)CCCO3)c1[C@H](OC(C)(C)C)C(=O)O (atropisomer, axis not shown) [Example 85]
0.0428 µM | Cc1nc2c(cc(-c3ccnc(N4CCC(N(C)C)CC4)c3)n2C)c(-c2cc(F)c3c(c2C)CCCO3)c1[C@H](OC(C)(C)C)C(=O)O (atropisomer, axis not shown) [Example 87]
0.0134 µM | Cc1nc2c(cc(-c3ccnc(N4CCN(c5ccncc5)CC4)c3)n2C)c(-c2cc(F)c3c(c2C)CCCO3)c1[C@H](OC(C)(C)C)C(=O)O (atropisomer, axis not shown) [Example 88]
0.0133 µM | Cc1nc2c(cc(-c3ccnc(N4CCN(c5ccccn5)CC4)c3)n2C)c(-c2cc(F)c3c(c2C)CCCO3)c1[C@H](OC(C)(C)C)C(=O)O (atropisomer, axis not shown) [Example 90]
0.0122 µM | Cc1nc2c(cc(-c3ccnc(N4CCN(C5CCCC5)CC4)c3)n2C)c(-c2cc(F)c3c(c2C)CCCO3)c1[C@H](OC(C)(C)C)C(=O)O (atropisomer, axis not shown) [Example 91]
0.0508 µM | Cc1nc2c(cc(-c3ccnc(N4CCCN(C)CC4)c3)n2C)c(-c2cc(F)c3c(c2C)CCCO3)c1[C@H](OC(C)(C)C)C(=O)O (atropisomer, axis not shown) [Example 94]
0.35 µM | Cc1nc2c(cc(-c3ccnc(N4CCCNCC4)c3)n2C)c(-c2cc(F)c3c(c2C)CCCO3)c1[C@H](OC(C)(C)C)C(=O)O (atropisomer, axis not shown) [Example 96]
0.0148 µM | Cc1nc2c(cc(-c3ccnc(N4C[C@H]5CC[C@@H]4C5)c3)n2C)c(-c2cc(F)c3c(c2C)CCCO3)c1[C@H](OC(C)(C)C)C(=O)O (atropisomer, axis not shown) [Example 99]
0.0674 µM | Cc1nc2c(cc(-c3ccnc(N4CCCN(C(=O)C5CCCC5)CC4)c3)n2C)c(-c2cc(F)c3c(c2C)CCCO3)c1[C@H](OC(C)(C)C)C(=O)O (atropisomer, axis not shown) [Example 101]
0.045 µM | Cc1nc2c(cc(-c3ccnc(N4CCCN(C(=O)C(C)C)CC4)c3)n2C)c(-c2cc(F)c3c(c2C)CCCO3)c1[C@H](OC(C)(C)C)C(=O)O (atropisomer, axis not shown) [Example 102]

Continued, compound first:

SMILES | IC50
Cc1nc2c(cc(-c3ccnc(-c4ccc5cn(C)nc5c4)c3)n2C)c(-c2cc(F)c3c(c2C)CCCO3)c1[C@H](OC(C)(C)C)C(=O)O (atropisomer, axis not shown) [Example 53] | 0.0021 µM
Cc1nc2c(cc(-c3ccnc(-c4ccc5c(cnn5C5CC5)c4)c3)n2C)c(-c2cc(F)c3c(c2C)CCCO3)c1[C@H](OC(C)(C)C)C(=O)O (atropisomer, axis not shown) [Example 54] | 0.0046 µM
Cc1nc2c(cc(-c3ccnc(-c4ccc5[nH]c(=O)[nH]c5c4)c3)n2C)c(-c2cc(F)c3c(c2C)CCCO3)c1[C@H](OC(C)(C)C)C(=O)O (atropisomer, axis not shown) [Example 55] | 0.411 µM
Cc1nc2c(cc(-c3ccnc(-c4ccc5c(c4)NCC5)c3)n2C)c(-c2cc(F)c3c(c2C)CCCO3)c1[C@H](OC(C)(C)C)C(=O)O (atropisomer, axis not shown) [Example 56] | 0.015 µM
Cc1nc2c(cc(-c3ccnc(-c4ccc5c(cnn5C)c4)c3)n2C)c(-c2cc(F)c3c(c2C)CCCO3)c1[C@H](OC(C)(C)C)C(=O)O (atropisomer, axis not shown) [Example 57] | 0.0014 µM
Cc1nc2c(cc(-c3ccnc(-c4cccc5cnn(C)c45)c3)n2C)c(-c2cc(F)c3c(c2C)CCCO3)c1[C@H](OC(C)(C)C)C(=O)O (atropisomer, axis not shown) [Example 59] | 0.016 µM
Cc1nc2c(cc(-c3ccnc(-c4ccc5c(c4)nnn5C)c3)n2C)c(-c2cc(F)c3c(c2C)CCCO3)c1[C@H](OC(C)(C)C)C(=O)O (atropisomer, axis not shown) [Example 60] | 0.0037 µM
Cc1nc2c(cc(-c3ccnc(-n4ccnc4C)c3)n2C)c(-c2cc(F)c3c(c2C)CCCO3)c1[C@H](OC(C)(C)C)C(=O)O (atropisomer, axis not shown) [Example 63] | 0.0154 µM
Cc1nc2c(cc(-c3ccnc(-c4cnc5c(cnn5C)c4)c3)n2C)c(-c2cc(F)c3c(c2C)CCCO3)c1[C@H](OC(C)(C)C)C(=O)O (atropisomer, axis not shown) [Example 66] | 0.0086 µM
Cc1nc2c(cc(-c3ccnc(-c4ccc5[nH]ncc5c4C)c3)n2C)c(-c2cc(F)c3c(c2C)CCCO3)c1[C@H](OC(C)(C)C)C(=O)O (atropisomer, axis not shown) [Example 68] | 0.0064 µM
Cc1nc2c(cc(-c3ccnc(-c4ccc(N(C)C)nc4)c3)n2C)c(-c2cc(F)c3c(c2C)CCCO3)c1[C@H](OC(C)(C)C)C(=O)O (atropisomer, axis not shown) [Example 69] | 0.0048 µM
Cc1nc2c(cc(-c3ccnc(N4CCn5c(C)nnc5C4)c3)n2C)c(-c2cc(F)c3c(c2C)CCCO3)c1[C@H](OC(C)(C)C)C(=O)O (atropisomer, axis not shown) [Example 79] | 0.645 µM
Cc1nc2c(cc(-c3ccnc(N4CCN(C(=O)c5ccccc5)CC4)c3)n2C)c(-c2cc(F)c3c(c2C)CCCO3)c1[C@H](OC(C)(C)C)C(=O)O (atropisomer, axis not shown) [Example 82] | 0.0477 µM
Cc1nc2c(cc(-c3ccnc(N4CCN(c5ccccc5)CC4)c3)n2C)c(-c2cc(F)c3c(c2C)CCCO3)c1[C@H](OC(C)(C)C)C(=O)O (atropisomer, axis not shown) [Example 83] | 0.0525 µM
COC1CCN(c2cc(-c3cc4c(-c5cc(F)c6c(c5C)CCCO6)c([C@H](OC(C)(C)C)C(=O)O)c(C)nc4n3C)ccn2)CC1 (atropisomer, axis not shown) [Example 86] | 0.0132 µM
CC(=O)N1CCN(c2cc(-c3cc4c(-c5cc(F)c6c(c5C)CCCO6)c([C@H](OC(C)(C)C)C(=O)O)c(C)nc4n3C)ccn2)CC1 (atropisomer, axis not shown) [Example 89] | 0.025 µM
Cc1nc2c(cc(-c3ccnc(N4CCN(S(C)(=O)=O)CC4)c3)n2C)c(-c2cc(F)c3c(c2C)CCCO3)c1[C@H](OC(C)(C)C)C(=O)O (atropisomer, axis not shown) [Example 92] | 0.0196 µM
Cc1nc2c(cc(-c3ccnc(N4CCN(c5ncccn5)CC4)c3)n2C)c(-c2cc(F)c3c(c2C)CCCO3)c1[C@H](OC(C)(C)C)C(=O)O (atropisomer, axis not shown) [Example 93] | 0.0239 µM
CC(=O)N1CCCN(c2cc(-c3cc4c(-c5cc(F)c6c(c5C)CCCO6)c([C@H](OC(C)(C)C)C(=O)O)c(C)nc4n3C)ccn2)CC1 (atropisomer, axis not shown) [Example 95] | 0.0524 µM
Cc1nc2c(cc(-c3ccnc(N4CCCN(S(C)(=O)=O)CC4)c3)n2C)c(-c2cc(F)c3c(c2C)CCCO3)c1[C@H](OC(C)(C)C)C(=O)O (atropisomer, axis not shown) [Example 97] | 0.0165 µM
Cc1nc2c(cc(-c3ccnc(N4CCCN(C(C)C)CC4)c3)n2C)c(-c2cc(F)c3c(c2C)CCCO3)c1[C@H](OC(C)(C)C)C(=O)O (atropisomer, axis not shown) [Example 98] | 0.0162 µM
CC1=CCN(c2cc(-c3cc4c(-c5cc(F)c6c(c5C)CCCO6)c([C@H](OC(C)(C)C)C(=O)O)c(C)nc4n3C)ccn2)CC1 (atropisomer, axis not shown) [Example 100] | 0.0142 µM
